Reference: patent US8884013B2, “Polymorphs of Dasatinib, preparation methods and pharmaceutical compositions thereof” (Nan Jing Cavendish Bio-Engineering Technology Co., Ltd., priority 2010, dated 2014)
“Also recorded” adds a separate entry of the source. Blank lines part the entries; values can stand above or below the compound they belong to.

Columns and labels:
[1] = Accelerated test (40° C. and 75% relative humidity); assay type: physicochemical; conditions: for Appearance / Content / Related substances: 40° C., 75% relative humidity; for Physical and chemical characteristic in accelerated test (in words): summary of six-month test
Text: (§1) The conditions and methods of related substance test involved in this invention was in accordance with HPLC (Appendix VD of Chinese Pharmacopoeia, Vol. II, (2005)).
(§2) Chromatographic conditions and system applicability:
(§3) octadecylsilane bonded silica as the filler; 0.05 mol/L of potassium dihydrogen phosphate (adjusted to pH 2.5 by phosphoric acid)-methanol (45:55) as the mobile phase; detection wavelength was 230 nm; the number of theoretical plates should be not less than 2000, calculated according to the peak area of Dasatinib. The resolution of the peak of Dasatinib from the peaks of adjacent impurities should meet requirements.
(§4) Test Method: the sample was weight and dissolved into mobile phase to be the solution containing 0.5 mg per mL, and 20 μL of this solution was taken and injected into liquid chromatography. Chromatogram was recorded until it is 6 times as the retention time of the main peak.
(§5) The raw material of Polymorph I of Dasatinib was hermetically packed in plastic bags of polyethylene film and put in thermostatic and humidostatic incubator at 40±2° C. and 75±5% relative humidity for six months. Sample was tested at the end of the 1st, 2nd, 3rd and 6th month respectively and the results were contrasted with that of the zeroth month. Results were listed in Tab. 5.
as §5, with “II” for “I”, “10.” for “5.”

[2] = Stability in water compared with polymorph A of CN200580011916.6
[3] = Stability of polymorph in the formulations (XRPD and relative substances after formulation); assay type: physicochemical; conditions: for Change of relative substances of bulk drug in the formulation (in words): after formulation into capsules or tablets; for Change of crystalline form after being formulated: capsules or tablets, XRPD
Text: Stability of Polymorph in the Formulations
The XRPD patterns of capsules and tablets respectively prepared in the Example 3 and Example 4 have been tested, and compared with XRPD characteristic peaks of Polymorph I of Dasatinib prepared by the Method A in the Example 1 in the present invention, as listed in the following table:
In addition, The relative substances of capsules and tablets respectively prepared in the Example 3 and Example 4 have been tested, and compared with those of Polymorph I of Dasatinib prepared by the Method A in the Example 1 in the present invention, as listed in the following table: […]

[4] = High temperature test (60° C.); assay type: physicochemical; conditions: for Change of appearance in high temperature test (in words) / Change of content in high temperature test (in words): summary of 10-day test
Text: as §1, §2, §3, §4
2.2 High Temperature Test
The raw material of Polymorph I of Dasatinib monohydrate was put into a clean sealed glass bottle and then put in thermostatic drying chamber at 60° C. Sample was tested at the 5th and 10th day respectively and the results were contrasted with that of the Day 0. Results were listed in Tab. 3.
The raw material of Polymorph II of Dasatinib was put into a clean sealed glass bottle and then put in thermostatic drying chamber at 60° C. Sample was tested at the 5th and 10th day respectively and the results were contrasted with that of the Day 0. Results were listed in Tab. 8.

[5] = Photostability test (4500 ± 500 Lx); assay type: physicochemical; conditions: for Appearance / Content / Related substance: 4500 ± 500lx
Text: as §1, §2, §3, §4
(§6) The Polymorph I of Dasatinib monohydrate was distributed homogeneously in open petri dish with the thickness of the raw material not more than 5 mm, and the distance was adjusted to make illumination intensity at 4500±500 Lx. Sample was tested at the 5th and 10th day respectively and the results were contrasted with that of the Day 0. Results were listed in Tab. 2.
as §6, with “II” for “I”, “Dasatinib” for “Dasatinib monohydrate”, “7.” for “2.”

Appearance ([1]; month 0): white powder
Content ([1]; month 0): 99.7%
Related substances ([1]; month 0): 0.07%
Appearance ([1]; month 1): white powder
Content ([1]; month 1): 99.6%
Related substances ([1]; month 1): 0.07%
Appearance ([1]; month 2): white powder
Content ([1]; month 2): 99.6%
Related substances ([1]; month 2): 0.08%
Appearance ([1]; month 3): white powder
Content ([1]; month 3): 99.6%
Related substances ([1]; month 3): 0.08%
Appearance ([1]; month 6): white powder
Content ([1]; month 6): 99.5%
Related substances ([1]; month 6): 0.09%
Physical and chemical characteristic in accelerated test (in words) [1]: relatively stable
Stability in water by comparison to polymorph A of CN200580011916.6 [2]: better stability in water
Relative substances ([3]; bulk drug vs capsules and tablets of Examples 3 and 4): 0.07%
Appearance ([4]; day 0): white powder
Content ([4]; day 0): 99.8%
Related substance ([4]; day 0): 0.06%
Appearance ([4]; day 5): white powder
Content ([4]; day 5): 99.7%
Related substance ([4]; day 5): 0.09%
Appearance ([4]; day 10): white powder
Content ([4]; day 10): 99.5%
Related substance ([4]; day 10): 0.12%
Change of appearance in high temperature test (in words) [4]: few obvious change
Change of content in high temperature test (in words) [4]: went down marginally
Appearance ([5]; day 0): white powder
Content ([5]; day 0): 99.7%
Related substance ([5]; day 0): 0.07%
Appearance ([5]; day 5): white powder
Content ([5]; day 5): 99.6%
Related substance ([5]; day 5): 0.21%
Appearance ([5]; day 10): white powder
Content ([5]; day 10): 99.4%
Related substance ([5]; day 10): 0.34%
Change of content in photostability test (in words) ([5]; summary of 10-day test): of some drop
Change of related substances in photostability test (in words) ([5]; summary of 10-day test): increased slightly
SMILES: Cc1nc(Nc2ncc(C(=O)Nc3c(C)cccc3Cl)s2)cc(N2CCN(CCO)CC2)n1 [Polymorph I, N-(2-chloro-6-methylphenyl)-2-[[6-[4-(2-hydroxyethyl)-1-piperazinyl]-2-methyl-4-pyrimidyl]amino]-5-thiazolformamide]
Change of relative substances of bulk drug in the formulation (in words) [3]: didn't increase; also recorded: no significantly changes
Change of crystalline form after being formulated [3]: no substantially change; also recorded: substantially no change

Appearance ([1]; month 0): white powder
Content ([1]; month 0): 99.8%
Related substances ([1]; month 0): 0.06%
Appearance ([1]; month 1): white powder
Content ([1]; month 1): 99.7%
Related substances ([1]; month 1): 0.07%
Appearance ([1]; month 2): white powder
Content ([1]; month 2): 99.8%
Related substances ([1]; month 2): 0.08%
Appearance ([1]; month 3): white powder
Content ([1]; month 3): 99.6%
Related substances ([1]; month 3): 0.07%
Appearance ([1]; month 6): white powder
Content ([1]; month 6): 99.6%
Related substances ([1]; month 6): 0.08%
Physical and chemical characteristic in accelerated test (in words) [1]: of relative stability
Stability in water by comparison to polymorph A of CN200580011916.6 [2]: better stability in water
Change of relative substances of bulk drug in the formulation (in words) [3]: didn't increase
Change of crystalline form after being formulated [3]: no substantially change
Content ([4]; day 0): 99.8%
Related substance ([4]; day 0): 0.06%
Content ([4]; day 5): 99.7%
Related substance ([4]; day 5): 0.11%
Content ([4]; day 10): 99.4%
Related substance ([4]; day 10): 0.16%
Change of appearance in high temperature test (in words) [4]: few obvious change
Change of content in high temperature test (in words) [4]: few obvious change
Content ([5]; day 0): 99.8%
Related substance ([5]; day 0): 0.06%
Content ([5]; day 5): 99.6%
Related substance ([5]; day 5): 0.22%
Content ([5]; day 10): 99.3%
Related substance ([5]; day 10): 0.36%
Change of appearance in photostability test (in words) ([5]; summary of 10-day test): no obvious change
Change of content in photostability test (in words) ([5]; summary of 10-day test): of some drop
Change of related substances in photostability test (in words) ([5]; summary of 10-day test): increased slightly
SMILES: Cc1nc(Nc2ncc(C(=O)Nc3c(C)cccc3Cl)s2)cc(N2CCN(CCO)CC2)n1 [Polymorph II, N-(2-chloro-6-methylphenyl)-2-[[6-[4-(2-hydroxyethyl)-1-piperazinyl]-2-methyl-4-pyrimidyl]amino]-5-thiazolformamide]
